Values quoted from earlier work, collected in patent US20180193334A1, “PHARMACEUTICAL COMPOSITION OF VORTIOXETINE OR SALT THEREOF, AND PREPARATION METHOD THEREFOR” (Changzhou Fangnan Pharmaceuticals, Ltd., priority 2015, published 2018).
≈ marks a conversion by molar mass, not a printed value.

| solubility in water | SMILES |
| --- | --- |
| 1200 µg/mL | Br.Cc1ccc(Sc2ccccc2N2CCNCC2)c(C)c1 [1-[2-(2,4-methylphenylthio)phenyl] piperazine hydrobromide] |
| 100 µg/mL (≈ 335 µM) | Cc1ccc(Sc2ccccc2N2CCNCC2)c(C)c1 [vortioxetine free base] |
